The target in this assay is T1, Amylin 3(a) receptor (human calcitonin receptor (CTa) and RAMP-3) (Homo sapiens, UniProt O60896+P30988).
T1 construct: expressed in transfected cells; host or cells: BHK570 cells, stably transfected with a CRE-luciferase reporter
Description: Luciferase assay (III), BHK Amylin 3(a)//CRE-luc cells. Type of assay: cell-based. As to conditions: BHK cells with Amylin 3(a) receptor and CRE luciferase reporter, 4 hours incubation; read-out: Potency Luciferase. The text has this: It has previously been published (Poyner D R et al 2002, Pharmacological Reviews 54(2) 233-246) that activation of Amylin receptors (coexpression of Calcitonin receptor and receptor activity modifying peptides RAMPs) by Amylin leads to an increase in the intracellular concentration of cAMP. Consequently, transcription is activated at promoters containing multiple copies of the cAMP response element (CRE). It is thus possible to measure Amylin activity by use of a CRE luciferase reporter gene introduced into BHK cells also expressing an Amylin receptor.
2. Construction of an Amylin 3(a)/CRE-luc Cell Line
A BHK570 cell line stably transfected with the human calcitonin receptor (CTa) and a CRE-responsive luciferase reportergene. The cell line was further transfected with RAMP-3, using standard methods. This turns the Calcitonin receptor into an Amylin 3(a) receptor. Methotrexate, Neomycin, and Hygromycin are selection markers for luciferase, the Calcitonin receptor, and RAMP-3, respectively.
3. Amylin Luciferase Assay
To perform activity assays, BHK Amylin 3(a)//CRE-luc cells were seeded in white 96 well culture plates at a density of about 20,000 cells/well. The cells were in 100 μl growth medium (DMEM with 10% FBS, 1% Pen/Strep, 1 mM Na-pyruvate, 250 nM Methotrexate, 500 μg/ml Neomycin, and 400 μg/ml Hygromycin). After incubation overnight at 37° C. and 5% CO2, the growth medium was replaced by 50 μl/well assay medium (DMEM (without phenol red), Glumamax™, 10% FBS, and 10 mM Hepes, pH 7,4). Further, 50 μl/well of standard or sample in assay buffer were added. After 4 hours incubation at 37° C. and 5% CO2, the assay medium with standard or sample were removed and replaced by 100 μl/well PBS. Further, 100 μl/well LucLite™ was added. The plates were sealed and incubated at room temperature for 30 minutes. Finally, luminescence was measured on a TopCounter (Packard) in SPC (single photon counting) mode.

*1 amine or outer side, *2 acyl side, *3 side chain or, on linkers, in order; H or OH if unused. Where a SMILES comes first, the peptide text is derived from it. Bridges are numbered along the chain shown (N, C = ends). The star is where a group is joined. C20 diacid = O=C(O)CCCCCCCCCCCCCCCCCCC(=O)*; γGlu = O=C(O)[C@H](CCC(=O)[*:2])N[*:1]; Adipoyl = O=C(CCCCC(=O)[*:2])[*:1]; AEEA = NCCOCCOCC(=O)O

T1 sequence (O60896 24-148): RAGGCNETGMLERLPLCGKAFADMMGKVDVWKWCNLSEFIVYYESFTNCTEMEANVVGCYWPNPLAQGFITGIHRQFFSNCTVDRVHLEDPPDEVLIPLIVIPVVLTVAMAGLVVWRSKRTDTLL
T1 sequence (P30988 25-474): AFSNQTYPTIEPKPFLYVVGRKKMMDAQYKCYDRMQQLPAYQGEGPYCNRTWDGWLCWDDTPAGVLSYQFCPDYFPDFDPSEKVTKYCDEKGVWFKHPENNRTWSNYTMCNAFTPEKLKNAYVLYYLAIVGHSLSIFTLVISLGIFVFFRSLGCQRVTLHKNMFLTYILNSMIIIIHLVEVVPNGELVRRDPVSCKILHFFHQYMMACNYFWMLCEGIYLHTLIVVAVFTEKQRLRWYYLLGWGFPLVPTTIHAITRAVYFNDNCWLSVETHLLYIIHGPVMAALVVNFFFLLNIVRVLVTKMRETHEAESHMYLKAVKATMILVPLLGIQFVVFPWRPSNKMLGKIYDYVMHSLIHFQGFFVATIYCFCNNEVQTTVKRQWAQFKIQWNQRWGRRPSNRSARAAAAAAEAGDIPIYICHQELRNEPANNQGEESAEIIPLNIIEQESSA

Turning to `CC[C@H](C)[C@H](NC(=O)[C@@H]1CCCN1C(=O)CNC(=O)[C@H](Cc1ccccc1)NC(=O)[C@H](CC(N)=O)NC(=O)[C@H](CC(N)=O)NC(=O)[C@H](CO)NC(=O)[C@H](CO)NC(=O)[C@H](Cc1c[nH]cn1)NC(=O)[C@H](Cc1c[nH]cn1)NC(=O)[C@H](CC(C)C)NC(=O)[C@H](Cc1ccccc1)NC(=O)[C@H](CC(N)=O)NC(=O)[C@H](C)NC(=O)[C@H](CC(C)C)NC(=O)[C@H](CCCNC(=N)N)NC(=O)[C@H](CCC(N)=O)NC(=O)[C@@H](NC(=O)[C@H](C)NC(=O)[C@@H]1CSSC[C@H](NC(=O)COCCOCCNC(=O)CC[C@H](NC(=O)CCCCCCCCCCCCCCCCCCC(=O)O)C(=O)O)C(=O)N[C@@H](CC(N)=O)C(=O)N[C@@H]([C@@H](C)O)C(=O)N[C@@H](C)C(=O)N[C@@H]([C@@H](C)O)C(=O)N1)[C@@H](C)O)C(=O)N[C@@H](CC(C)C)C(=O)N1CCC[C@H]1C(=O)N1CCC[C@H]1C(=O)N[C@H](C(=O)N[C@@H](CC(N)=O)C(=O)N[C@H](C(=O)NCC(=O)N[C@@H](CO)C(=O)N[C@@H](CC(N)=O)C(=O)N[C@H](C(=O)N[C@@H](Cc1ccc(O)cc1)C(N)=O)[C@@H](C)O)C(C)C)[C@@H](C)O` [Example 16, N-alpha-[2-(2-{2-[4-(S)-Carboxy-4-(19-carboxynonadecanoylamino)butyrylamino]ethoxy}ethoxy)acetyl]-[His17]-pramlintide (2-37)] ({C20 diacid-γGlu-AEEA}-CNTATCATQRLANFLHHSSNNFGPILPPTNVGSNTY-NH2; disulfide 1-6), the EC50 is 0.1 nM.

`CC[C@H](C)[C@H](NC(=O)[C@@H]1CCCN1C(=O)CNC(=O)[C@H](Cc1ccccc1)NC(=O)[C@H](CC(N)=O)NC(=O)[C@H](CC(N)=O)NC(=O)[C@H](CO)NC(=O)[C@H](CO)NC(=O)[C@H](Cc1c[nH]cn1)NC(=O)[C@H](Cc1c[nH]cn1)NC(=O)[C@H](CC(C)C)NC(=O)[C@H](Cc1ccccc1)NC(=O)[C@H](CC(N)=O)NC(=O)[C@H](C)NC(=O)[C@H](CC(C)C)NC(=O)[C@H](CCCNC(=N)N)NC(=O)[C@H](CCC(N)=O)NC(=O)[C@@H](NC(=O)[C@H](C)NC(=O)[C@@H]1CSSC[C@H](NC(=O)[C@H](Cc2c[nH]cn2)NC(=O)[C@H](Cc2c[nH]cn2)NC(=O)[C@H](Cc2c[nH]cn2)NC(=O)CC[C@H](NC(=O)CCCCC(=O)O)C(=O)O)C(=O)N[C@@H](CC(N)=O)C(=O)N[C@@H]([C@@H](C)O)C(=O)N[C@@H](C)C(=O)N[C@@H]([C@@H](C)O)C(=O)N1)[C@@H](C)O)C(=O)N[C@@H](CC(C)C)C(=O)N1CCC[C@H]1C(=O)N1CCC[C@H]1C(=O)N[C@H](C(=O)N[C@@H](CC(N)=O)C(=O)N[C@H](C(=O)NCC(=O)N[C@@H](CO)C(=O)N[C@@H](CC(N)=O)C(=O)N[C@H](C(=O)N[C@@H](Cc1ccc(O)cc1)C(N)=O)[C@@H](C)O)C(C)C)[C@@H](C)O` [Example 61, N-alpha-[(S)-4-Carboxy-4-(5-carboxypentanoylamino)butyryl]-His-His-[His1,His17]-pramlintide] ({Adipoyl-γGlu}-HHHCNTATCATQRLANFLHHSSNNFGPILPPTNVGSNTY-NH2; disulfide 4-9): the EC50 is 0.04 nM.

`CC[C@H](C)[C@H](NC(=O)[C@@H]1CCCN1C(=O)CNC(=O)[C@H](Cc1ccccc1)NC(=O)[C@H](CC(N)=O)NC(=O)[C@H](CC(N)=O)NC(=O)[C@H](CO)NC(=O)[C@H](CO)NC(=O)[C@H](Cc1c[nH]cn1)NC(=O)[C@H](CCCNC(=N)N)NC(=O)[C@H](CC(C)C)NC(=O)[C@H](Cc1ccccc1)NC(=O)[C@H](CC(N)=O)NC(=O)[C@H](C)NC(=O)[C@H](CC(C)C)NC(=O)[C@H](CCCNC(=N)N)NC(=O)[C@H](CCC(N)=O)NC(=O)[C@@H](NC(=O)[C@H](C)NC(=O)[C@@H]1CSSC[C@H](NC(=O)[C@H](CCC(=O)O)NC(=O)[C@H](CCC(=O)O)NC(=O)CC[C@H](NC(=O)CCCCCCCCCCCCCCCCCCC(=O)O)C(=O)O)C(=O)N[C@@H](CC(N)=O)C(=O)N[C@@H]([C@@H](C)O)C(=O)N[C@@H](C)C(=O)N[C@@H]([C@@H](C)O)C(=O)N1)[C@@H](C)O)C(=O)N[C@@H](CC(C)C)C(=O)N1CCC[C@H]1C(=O)N1CCC[C@H]1C(=O)N[C@H](C(=O)N[C@@H](CC(N)=O)C(=O)N[C@H](C(=O)NCC(=O)N[C@@H](CO)C(=O)N[C@@H](CC(N)=O)C(=O)N[C@H](C(=O)N[C@@H](Cc1ccc(O)cc1)C(N)=O)[C@@H](C)O)C(C)C)[C@@H](C)O` [Example 49, N-alpha-[(S)-4-Carboxy-4-(19-carboxynonadecanoylamino)butyryl]-Glu-[Glu1,Arg17]-pramlintide] ({C20 diacid-γGlu}-EECNTATCATQRLANFLRHSSNNFGPILPPTNVGSNTY-NH2; disulfide 3-8): the EC50 is 0.3 nM.

Consider `CC[C@H](C)[C@H](NC(=O)[C@@H]1CCCN1C(=O)CNC(=O)[C@H](Cc1ccccc1)NC(=O)[C@H](CC(N)=O)NC(=O)[C@H](CC(N)=O)NC(=O)[C@H](CO)NC(=O)[C@H](CO)NC(=O)[C@H](Cc1c[nH]cn1)NC(=O)[C@H](Cc1c[nH]cn1)NC(=O)[C@H](CC(C)C)NC(=O)[C@H](Cc1ccccc1)NC(=O)[C@H](CC(=O)O)NC(=O)[C@H](C)NC(=O)[C@H](CC(C)C)NC(=O)[C@H](CCCNC(=N)N)NC(=O)[C@H](CCC(N)=O)NC(=O)[C@@H](NC(=O)[C@H](C)NC(=O)[C@@H]1CSSC[C@H](NC(=O)CC[C@H](NC(=O)CCCCCCCCCCCCCCCCCCC(=O)O)C(=O)O)C(=O)N[C@@H](CC(N)=O)C(=O)N[C@@H]([C@@H](C)O)C(=O)N[C@@H](C)C(=O)N[C@@H]([C@@H](C)O)C(=O)N1)[C@@H](C)O)C(=O)N[C@@H](CC(C)C)C(=O)N1CCC[C@H]1C(=O)N1CCC[C@H]1C(=O)N[C@H](C(=O)N[C@@H](CC(N)=O)C(=O)N[C@H](C(=O)NCC(=O)N[C@@H](CO)C(=O)N[C@@H](CC(N)=O)C(=O)N[C@H](C(=O)N[C@@H](Cc1ccc(O)cc1)C(N)=O)[C@@H](C)O)C(C)C)[C@@H](C)O` [Example 43, N-alpha-[(S)-4-Carboxy-4-(19-carboxynonadecanoylamino)butyryl]-[Asp14,His17]-pramlintide (2-37)] ({C20 diacid-γGlu}-CNTATCATQRLADFLHHSSNNFGPILPPTNVGSNTY-NH2; disulfide 1-6), for which the EC50 was 0.1 nM.

Consider `CC[C@H](C)[C@H](NC(=O)[C@@H]1CCCN1C(=O)CNC(=O)[C@H](Cc1ccccc1)NC(=O)[C@H](CC(N)=O)NC(=O)[C@H](CC(N)=O)NC(=O)[C@H](CO)NC(=O)[C@H](CO)NC(=O)[C@H](Cc1c[nH]cn1)NC(=O)[C@H](Cc1c[nH]cn1)NC(=O)[C@H](CC(C)C)NC(=O)[C@H](Cc1ccccc1)NC(=O)[C@H](CC(N)=O)NC(=O)[C@H](C)NC(=O)[C@H](CC(C)C)NC(=O)[C@H](CCCNC(=N)N)NC(=O)[C@H](CCC(N)=O)NC(=O)[C@@H](NC(=O)[C@H](C)NC(=O)[C@@H]1CSSC[C@H](NC(=O)[C@H](CCC(=O)O)NC(=O)CC[C@H](NC(=O)CCCCCCCCCCCCCCCCCCC(=O)O)C(=O)O)C(=O)N[C@@H](CC(N)=O)C(=O)N[C@@H]([C@@H](C)O)C(=O)N[C@@H](C)C(=O)N[C@@H]([C@@H](C)O)C(=O)N1)[C@@H](C)O)C(=O)N[C@@H](CC(C)C)C(=O)N1CCC[C@H]1C(=O)N1CCC[C@H]1C(=O)N[C@H](C(=O)N[C@@H](CC(N)=O)C(=O)N[C@H](C(=O)NCC(=O)N[C@@H](CO)C(=O)N[C@@H](CC(N)=O)C(=O)N[C@H](C(=O)N[C@@H](Cc1ccc(O)cc1)C(N)=O)[C@@H](C)O)C(C)C)[C@@H](C)O` [Example 51, N-alpha-[(S)-4-Carboxy-4-(19-carboxynonadecanoylamino)butyryl]-[Glu 1,His17]-pramlintide] ({C20 diacid-γGlu}-ECNTATCATQRLANFLHHSSNNFGPILPPTNVGSNTY-NH2; disulfide 2-7), for which the EC50 turned out to be 0.2 nM.

Values taken from US8895504B2, “Amylin derivatives” (priority 2008, dated 2014).
